Residues, ends and D or L forms follow the SMILES beside them.
test system: not listed separately; test: Esterase activity, hydrolysis of activated ester substrate; type: biochemical; details: ratio of the apparent second order rate constants (kcat/KM)
Description: The esterase and amidase activities were obtained from initial rate measurements using a Kontron Uvikon 860 spectrophotometer. The assay for esterase activity utilized the substrate s-Ala-Ala-Pro-Phe-Sbz at (25±0.2° C.) in 100 mM Tris-HCl (pH 8.60), 4% (v/v) dimethylsulfoxide, 0.005% (v/v) Tween 80. With the non-cysteine containing proteases, DTNB (Ellman (1959), Arch. Biochem. Biophys., 82, 70-77) was added to a concentration of 37.5 μM to visualize the release of thiolbenzoate upon hydrolysis of the substrate. […] The amidase activities were measured under identical conditions by following the increase in absorbance at 412 nm upon hydrolysis of p-nitroanilide from s-Ala-Ala-Pro-Phe-pNA.

Row | Molecule | esterase/amidase
1 | wild type: wild type subtilisin from Bacillus amyloliquefaciens (subtilisin BPN') (protein, UniProt P00782 108-382, looked up) Subtilisin BPN': AQSVPYGVSQIKAPALHSQGYTGSNVKVAVIDSGIDSSHPDLKVAGGASMVPSETNPFQDNNSHGTHVAGTVAALNNSIGVLGVAPSASLYAVKVLGADGSGQYSWIINGIEWAIANNMDVINMSLGGPSGSAALKAAVDKAVASGVVVVAAAGNEGTSGSSSTVGYPGKYPSVIAVGAVDSSNQRASFSSVGPELDVMAPGVSIQSTLPGNKYGAYNGTSMASPHVAGAAALILSKHPNWTNTQVRSSLENTTTKLGDSFYYGKGLINVQAAAQ | 4.8

target: T1, peptide ligase acylated by s-Ala-Ala-Pro-Phe (Bacillus amyloliquefaciens, UniProt P00782, P332A/S328C); test: Aminolysis efficiency of di- and tri-amino acid peptide nucleophiles (Table IV); type: biochemical; details: not given
T1 construct: made in house
Description: Enzymatic ligation of peptides were performed at (25±0.2° C.) in 90 mM Tricine (pH 8.0), 2% (v/v) dimethylacetamide, 0.005% (v/v) Tween 80. The comparison between substrates having different leaving groups was simplified by measuring initial reaction rates at a low substrate concentrations (70-75 μM) and at a higher concentration (1.33 mM) where rates are proportional to kcat/KM and the kcat, respectively (Fersht (1977) in Enzyme Structure and Mechanism, W. H. Freeman & Co. USA). The higher substrate concentration may still be below the KM for some of the substrates, so that values for kcat are less accurate. The aminolysis with di- and tripeptides was performed at low peptide concentrations. The aminolysis rate V=kaminolysis [N][E-Ac]/KN, where [N] is the nucleophile concentration, [E-Ac] is the concentration of acyl-enzyme intermediate and KN is the dissociation constant for the binding of the nucleophile to the acyl-enzyme intermediate (Riechmann and Kasche (1985), Biochem. Biophys. Acta., 830, 164-172). Since KN=[N][E-Ac]/[N·E-Ac] a change in [N] will result in a change in [E-Ac] but at low [N], [E-Ac]>>[N·E-Ac] and kaminolysis /KN (the apparent second order rate constants for the reaction between the different nucleophile and the acyl-enzyme intermediate) may be compared. The concentrations of the peptide nucleophiles, and the calibration of the absorbance data for the different ligation products was obtained from amino acid composition analysis. The rates of peptide ligation were measured at four or five different concentrations for each nucleophile.
Ligation reactions were analyzed by taking aliquots at different times and analyzing the peptide products by C-18 reversed phase HPLC. Peptides were eluted in a gradient of acetonitrile/0.1% TFA in water/0.1% TFA and the absorbance at 214 nm monitored. Amino acid composition analysis was used to confirm both the hydrolysis and aminolysis products and to calibrate the absorbance values. The structures of the hydrolysis and aminolysis products (using the dipeptide Ala-Phe-amide as a nucleophile) were confirmed by mass spectrometrical analysis.

T1 sequence (P00782 108-382 S328C/P332A): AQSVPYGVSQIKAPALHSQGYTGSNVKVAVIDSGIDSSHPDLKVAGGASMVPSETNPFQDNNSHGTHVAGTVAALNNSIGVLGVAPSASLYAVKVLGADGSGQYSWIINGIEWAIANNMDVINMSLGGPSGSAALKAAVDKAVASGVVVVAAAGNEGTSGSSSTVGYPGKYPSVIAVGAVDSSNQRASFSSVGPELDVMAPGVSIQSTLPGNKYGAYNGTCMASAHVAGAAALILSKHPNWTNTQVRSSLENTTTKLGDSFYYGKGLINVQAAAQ

Row | Molecule | faster to aminolyze than Arg-Gly
2 | N=C(N)NCCC[C@H](N)C(=O)N[C@@H](Cc1ccccc1)C(N)=O [RF, Arg-Phe-amide] | ~100 fold

same assay, conditions: compared with NH2-Gly-Phe-amide

Row | Molecule | quality as ligation substrate, in words
3 | NC(=O)CNC(=O)[C@@H](N)Cc1ccccc1 [FG, Phe-Gly-amide] (H-Phe-Gly-NH2) | extremely poor ligation substrates

same assay, conditions: peptides amidated at the carboxy terminus; low peptide concentrations; pH 8.0, 25 C

Row | Molecule | apparent second order rate constants for the reaction of the nucleophile with the acylated peptide ligase, compared
4 | C[C@H](N)C(=O)N[C@@H](Cc1ccccc1)C(N)=O [AF, Ala-Phe-amide] | 1.0
5 | C[C@H](N)C(=O)N[C@@H](Cc1ccccc1)C(=O)N[C@@H](C)C(N)=O [AFA, Ala-Phe-Ala-amide] (H-Ala-Phe-Ala-NH2) | 2.0
6 | NC(=O)CNC(=O)[C@@H](N)Cc1ccccc1 [FG, Phe-Gly-amide] (H-Phe-Gly-NH2) | 0.006
7 | C[C@H](NC(=O)CN)C(N)=O [GA, Gly-Ala-amide] (H-Gly-Ala-NH2) | 0.1
8 | NCC(=O)N[C@@H](Cc1ccccc1)C(N)=O [GF, Gly-Phe-amide] (H-Gly-Phe-NH2) | 0.8
9 | CC(C)C[C@H](NC(=O)CN)C(N)=O [GL, Gly-Leu-amide] | 0.3
10 | CC(C)C[C@H](N)C(=O)N[C@@H](Cc1ccccc1)C(N)=O [LF, Leu-Phe-amide] (H-Leu-Phe-NH2) | 0.3
11 | CC(C)C[C@H](N)C(=O)N[C@@H](Cc1ccccc1)C(=O)N[C@@H](CC(=O)O)C(N)=O [LFD, Leu-Phe-Asp-amide] (H-Leu-Phe-Asp-NH2) | 0.3
12 | N=C(N)NCCC[C@H](N)C(=O)N[C@@H](Cc1ccccc1)C(N)=O [RF, Arg-Phe-amide] | 2.0
13 | N=C(N)NCCC[C@H](N)C(=O)NCC(N)=O [RG, Arg-Gly-amide] (H-Arg-Gly-NH2) | 0.04

Source: patent US5629173A, “Methods of use of serine protease variants having peptide ligase activity” (priority 1995, dated 1997)
